Source: patent US20010031749A1, “Novel C-2 S/O-and S/N formaldehyde Acetal Derivatives of Carbapenem-3-carboxylic acids and their use as antibiotics and beta-lactamase inhibitors” (priority 1998, published 2001)

Tests used:
E. coli EC 228 = experiment: β-Lactamase inhibition activity against resistant bacteria (MIC of ceftazidime without and with Ia); assay type: cell-based; conditions: Escherichia coli, EC228, enzyme CAZ-ase, read-out: MIC, CAZ alone
K. pneumoniae KL 141 = experiment: as above; assay type: cell-based; conditions: Klebsiella pneumoniae, KL141, enzyme CAZ-ase, read-out: MIC, CAZ alone
K. pneumoniae KL 140 = experiment: as above; assay type: cell-based; conditions: Klebsiella pneumoniae, KL140, enzyme CAZ-ase, read-out: MIC, CAZ alone
E. coli EC 225 = experiment: as above; assay type: cell-based; conditions: Escherichia coli, EC225, enzyme TEM-5, read-out: MIC, CAZ alone
E. cloacae EB 131 = experiment: as above; assay type: cell-based; conditions: Enterobacter cloacae, EB131, enzyme Type 1 Ceph'ase, read-out: MIC, CAZ alone
E. coli EC 227 = experiment: as above; assay type: cell-based; conditions: Escherichia coli, EC227, enzyme CAZ-ase, read-out: MIC, CAZ alone
[1] = target: T1, Penicillinase from E. coli TEM 1 (Escherichia coli, UniProt P62593); experiment: β-Lactamase inhibition against isolated (cell free) enzymes, nitrocefin method; assay type: biochemical
T1 construct: bacterial β-lactamases isolated from Enterobacter cloacae and Escherichia coli; host or cells: Escherichia coli (enzyme isolated, cell free)
T1 sequence (P62593 24-286 limits assumed): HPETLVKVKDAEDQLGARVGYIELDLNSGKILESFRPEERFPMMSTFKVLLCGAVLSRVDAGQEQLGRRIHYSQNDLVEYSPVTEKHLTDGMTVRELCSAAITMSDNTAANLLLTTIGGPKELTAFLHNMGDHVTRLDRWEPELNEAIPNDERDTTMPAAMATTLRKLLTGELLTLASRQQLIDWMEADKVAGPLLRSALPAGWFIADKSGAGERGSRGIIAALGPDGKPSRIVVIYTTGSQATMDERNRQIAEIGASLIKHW
From the text: (§1) Moreover, all tested ceftazidime resistant Gram-negative pathogens became susceptible to a combination of ceftazidime and the compounds according to the invention. Thus, these compounds are also very potent β-lactamase inhibitors. The very high activity as β-lactamase inhibitors of the compounds I according to the invention was also observed with isolated bacterial enzymes in the nitrocefin test (R. Reimer, Methodicum Chimicum: Antibiotics, Vitamins and Hormons; F. Korte, M. Goto, eds., Thieme, Stuttgart, 1977, p.11, E. Wasielewski, Arzneimittel, Vol. 4; Chemotherapeutica, Part 1, Verlag Chemie, Weinheim 1972).
(§2) IC50 values were determined in a 1 cm UV cell at 37° C. after a 15 min preincubation period of enzyme and the inhibitor.

[2] = target: T2, β-Lactamase from Enterobacter cloacae (Enterobacter cloacae, UniProt P05364); experiment: as above; assay type: biochemical; conditions: 37° C., 15 min preincubation of enzyme and inhibitor
T2 construct: bacterial β-lactamases isolated from Enterobacter cloacae and Escherichia coli; host or cells: Enterobacter cloacae (enzyme isolated, cell free)
T2 sequence (P05364 21-381): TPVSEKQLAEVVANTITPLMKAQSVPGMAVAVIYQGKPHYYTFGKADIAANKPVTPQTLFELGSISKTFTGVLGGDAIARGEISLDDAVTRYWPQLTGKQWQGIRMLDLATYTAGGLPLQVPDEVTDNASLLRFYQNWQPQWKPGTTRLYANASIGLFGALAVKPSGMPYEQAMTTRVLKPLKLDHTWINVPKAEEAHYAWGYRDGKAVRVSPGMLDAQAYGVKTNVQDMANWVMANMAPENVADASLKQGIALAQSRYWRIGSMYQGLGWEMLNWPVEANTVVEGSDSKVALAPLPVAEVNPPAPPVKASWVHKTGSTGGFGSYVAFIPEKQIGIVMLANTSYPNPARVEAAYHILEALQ
From the text: as §1, §2

[3] = Oral activity: plasma level and half-life in mice after oral application; assay type: in vivo; conditions: mouse, dose 25 mg per kg, potassium salt
[4] = Stability in phosphate buffer (half-life of hydrolysis, UV method); assay type: physicochemical; conditions: for half-life: physiological phosphate buffer pH 7.4 and 37° C., UV method
Staph. aureus DSM 1104 = experiment: In vitro antibacterial activity, plate test (inhibition diameter); assay type: cell-based; conditions: 10 μg, Difco Nutrient Agar, 18 hrs at 37° C.
Protocol: (§3) The tests were carried out in sterile polypropylene dishes (diameter 8.5 cm) containing 10 ml of Difco Nutrient Agar. Inhibition was recorded after 18 hrs at 37° C. (inoculum ca. […] cells).

[5] = tested on: Enterobacter cloacae DSM 30054; experiment: as above; assay type: cell-based; conditions: 10 μg, Difco Nutrient Agar, 18 hrs at 37° C.
Protocol: as §3

Enterococcus = experiment: as above; assay type: cell-based; conditions: 10 μg, Difco Nutrient Agar, 18 hrs at 37° C.
Protocol: as §3

Escherichia coli TEM 1 = experiment: as above; assay type: cell-based; conditions: 10 μg, Difco Nutrient Agar, 18 hrs at 37° C.
Protocol: as §3

[6] = tested on: Escherichia coli DSM 1103; experiment: as above; assay type: cell-based; conditions: 10 μg, Difco Nutrient Agar, 18 hrs at 37° C.
Protocol: as §3

Staph. aureus Innsbruck = experiment: as above; assay type: cell-based; conditions: 10 μg, Difco Nutrient Agar, 18 hrs at 37° C.
Protocol: as §3

Staph. aureus resistant = experiment: as above; assay type: cell-based; conditions: 10 μg, Difco Nutrient Agar, 18 hrs at 37° C.
Protocol: as §3

Staph. aureus 25768 = experiment: as above; assay type: cell-based; conditions: 10 μg, Difco Nutrient Agar, 18 hrs at 37° C.
Protocol: as §3

Sacharomyces cerevisiae = experiment: Cytotoxicity, agar diffusion method; assay type: cell-based; conditions: 1.0 mg, yeast and mold agar, 16 hrs at 30° C.
Protocol: Sterile PP dishes of 8.5 cm diameter containing 10 ml of yeast and mold agar were used. Cytotoxicity was recorded after a 16 hrs incubation period at 30° C. (inoculum approx. 10^5 cells).

[7] = tested on: Pseudomonas aer. DSM 1117; experiment: In vitro antibacterial activity, plate test (inhibition diameter); assay type: cell-based, Pseudomonas aeruginosa; conditions: 10 μg, Difco Nutrient Agar, 18 hrs at 37° C.
Protocol: as §3

[8] = tested on: Pseudomonas aer. resistant; experiment: as above; assay type: cell-based, Pseudomonas aeruginosa; conditions: 10 μg, Difco Nutrient Agar, 18 hrs at 37° C.
Protocol: as §3

| SMILES | IC50 [1] [µM] | IC50 [2] [µM] | half-life [4] [h] | inhibition diameter (Staph. aureus DSM 1104) [mm] | inhibition diameter [5] [mm] | inhibition diameter (Enterococcus) [mm] | inhibition diameter (Escherichia coli TEM 1) [mm] | inhibition diameter [6] [mm] | inhibition diameter (Staph. aureus Innsbruck) [mm] | inhibition diameter (Staph. aureus resistant) [mm] | inhibition diameter (Staph. aureus 25768) [mm] | inhibition diameter (cytotoxicity) (Sacharomyces cerevisiae) [mm] | inhibition diameter [7] [mm] | inhibition diameter [8] [mm] | further results |
| --- | --- | --- | --- | --- | --- | --- | --- | --- | --- | --- | --- | --- | --- | --- | --- |
| CC(C)(O/N=C(\C(=O)N[C@@H]1C(=O)N2C(C(=O)[O-])=C(C[n+]3ccccc3)CS[C@H]12)c1csc(N)n1)C(=O)O [CAZ, ceftazidime] | – | – | – | – | – | – | – | – | – | – | – | – | – | – | MIC (E. coli EC 228): 16 mg/L; MIC (K. pneumoniae KL 141): > 64 mg/L; MIC (K. pneumoniae KL 140): > 64 mg/L; MIC (E. coli EC 225): 64 mg/L; MIC (E. cloacae EB 131): > 64 mg/L; MIC (E. coli EC 227): > 64 mg/L |
| COCSC1=C(C(=O)O)N2C(=O)[C@H]([C@@H](C)O)[C@H]2[C@H]1C [Ia, Potassium (4R,5S,6S)-6-((1′R)-hydroxyethyl)-3-(methoxymethylthio)-4-methyl-7-oxo-1-azabicyclo[3.2.0]hept-2-ene-2-carboxylate] | 0.2 | 0.004 | 50 | – | – | – | – | – | – | – | – | – | – | – | concentration at 10 min ([3]; plasma): 5.6 µg/mL; half-life ([3]; serum, 25 mg/kg, read-out: Approximative serum half-life): 0.417 h |
| CC(O)C1C(=O)N2C(C(=O)O)=C(SCOCCN)C(C)C12 (centres unmarked) [Ib] | 0.55 | 0.0085 | 50 | 39 | 26 | 21 | 33 | 30 | 9 | 35 | 28 | 0 | 27 | 17 | – |
| CC(O)C1C(=O)N2C(C(=O)O)=C(SCOCCNC=N)C(C)C12 [Ic, (4R,5S,6S)-3-((2-(Formimidoylamino)ethoxv)methylthio)-((1′R)-hydroxyethyl)-4-methyl-7-oxo-1-azabicyclo[3.2.0]hept-2-ene-2-carboxylic acid] | – | – | 35 | 39 | 25 | 21 | 33 | 30 | 8 | 35 | 26 | – | 25 | 13 | – |
| CC(O)C1C(=O)N2C(C(=O)O)=C(SCOC(C)(C)CN)C(C)C12 [Id, (4R,5S,6S)-3-((2-amino-1,1-dimethylethoxy)methylthio)-6-((1′R)-hydroxyethyl)-4-methyl-7-oxo-1-azabicyclo[3.2.0]hept-2-ene-2-carboxylic acid] | – | – | 50 | – | – | – | – | – | – | – | – | – | – | – | – |
| CC(=O)NCSC1=C(C(=O)O)N2C(=O)[C@H]([C@@H](C)O)[C@H]2[C@H]1C [Ie, Potassium (4R,5S,6S)-3-(acetamidomethylthio)-((1′R)-hydroxyethyl)-4-methyl-7-oxo-1-azabicyclo[3.2.0]hept-2-ene-2-carboxylate] | 0.3 | 0.006 | 40 | 36 | 27 | 18 | 34 | 32 | – | 32 | 27 | 0 | 16 | – | – |
| CC(O)C1C(=O)N2C(C(=O)O)=C(SCNC(=O)CN)C(C)C12 [If, (4R,5S,6S)-3-((2-Aminoacetamido)methylthio-6-((1′R)-hydroxyethyl)-4-methyl-7-oxo-1-azabicyclo[3.2.0]hept-2-ene-2-carboxylic acid] | – | – | 16 | 33 | 23 | 20 | 33 | 27 | 12 | 30 | 25 | 0 | 18 | 14 | – |
| CCN1CCN(CSC2=C(C(=O)[O-])N3C(=O)[C@H]([C@@H](C)O)[C@H]3[C@H]2C)C(=O)C1=O.[K+] [Ig, Potassium (4R,5S,6S)-3-((2,3-dioxo-4-ethyl-piperazinyl)methylthio)-6-((1′R)-hydroxyethyl)-4-methyl-7-oxo-1-azabicyclo[3.2.0]hept-2-ene-2-carboxylate] | – | – | – | – | – | – | – | – | – | – | – | – | – | – | half-life of hydrolysis ([4]; buffer, pH 7.4): 42 h |
